Patent US8114872B2, “Triazolyl aminopyrimidine compounds” (Eli Lilly and Company, priority 2007, dated 2012)
Where two headings read alike, the source gives them in different places.

Legend:
HeLa Cells = assay: pHH3(S10), Mitotic Cells, and DNA Content Assays; format: cell-based; settings: Homo sapiens, 23 hours exposure
Method: HeLa Cells are plated at 200 cells/well in 96 well […] Dickinson BIOCOAT™ plates, and are incubated in MEM (Minimum Essential Medium) with 10% FBS (Fetal Bovine Serum) in 37° C., 5% CO2 for 24 hours. Cells are treated by adding compound (in 0.25% DMSO) to the medium, dosing at 10 points across the range […] to 0.0098 μM. After 23 hours exposure to the compounds, cells are fixed, for example with the PREFER™ fixative for 30 min then are permeabilized with 0.1% TRITON® X100 in phosphate buffered saline (PBS) solution for 15 min. Cells are washed 3 times with PBS then digested with 50 μg/mL RNAse. Primary antibody, phosphohistone H3, is added at 1:500 in PBS with 1% bovine serum albumin (BSA) to the cells over night at 4° C. After 3 PBS washes, cells are incubated with Alexa488 labeled secondary antibody for 1 hour at RT. Again they are washed 3 times with PBS, and then 15 μM propidium iodide is added for 30 min to stain nuclei. Fluorescence Plates are scanned with ACUMEN EXPLORER™ [Laser-scanning fluorescence microplate cytometer (comprising of 488 nm argon ion laser excitation and multiple photomultiplier tube detection), manufactured by TTP LABTECH LTD] to measure anti-phosphohistone H3 Serine 10, DNA content and mitotic cells as measured by DNA condensation. Image analysis are based on cellular fluorescent signals for identifying cells in different subpopulations. pHH3(S10) positive cells are identified by mean intensity at 500-530 nm above the threshold. Total intensity at 655-705 nm from propidium iodide/DNA is used to identify individual cells (cells with DNA content from 2N to 4N) and subpopulations in cell cycle (2N cells, 4N cells). Peak intensity at 575-640 nm is used to identify DNA condensation that is used as the marker to identify mitotic cells among 4N cells. Assay outputs are percentage of each identified subpopulations, % pHH3, % 2N, % 4N, % mitotic and total cell number. The EC50 is determined by curve fitting to a four parameter logistic for each output using ACTIVITY BASE™.

HCT116 cells = assay: Antiproliferative Assay (Alamar Blue); format: cell-based; settings: Homo sapiens, HCT-116, e.g. 72 hours exposure, n=2, MSR 3.1, racemate, read-out: average IC50 (cell proliferation)
Method: The effects of compounds on cell proliferation can be determined using cells and cell proliferation methods well-known in the art (Robert C. Squatrito et al., Gynecological Oncology, 58, 101-105, (1995)). For example, HCT116 cells, which may be obtained from the American Type Culture Collection, may be seeded at ˜2000 cells/well in 96-well plates and allowed to attach overnight in a humidified CO2 incubator at 37° C. Following the 20-24 hour incubation, half-log serially diluted compounds are added and the plates are returned to the incubator. After an appropriate length of exposure (e.g., 72 hours), cell proliferation is estimated using well-known methods. In one method, 10 μL of a tetrazolium salt, such as Alamar Blue™ is added to the cell plates. After an appropriate exposure to the dye, fluorescence (530 nm excitation, 580 nm emission) is determined.

[1] = target: T1, Plk1-Flag-His6 tag fusion enzyme (Human Plk1) (Homo sapiens, UniProt P53350); assay: Plk1 Inhibition Assay (33P-ATP filter plate kinase reaction, GST-Cdc25C(1-206) substrate); format: biochemical; settings: 5.0 μM ATP, RT 60 min; MSR 3.6; racemate; read-out: Plk1 IC50 (absolute IC50)
T1 construct: made in house; host or cells: Sf9 insect cells (baculovirus, pFastBac vector); substrate in E. coli BL21 (pGEX-2T)
T1 sequence (P53350 whole entry, the tested form may be a part): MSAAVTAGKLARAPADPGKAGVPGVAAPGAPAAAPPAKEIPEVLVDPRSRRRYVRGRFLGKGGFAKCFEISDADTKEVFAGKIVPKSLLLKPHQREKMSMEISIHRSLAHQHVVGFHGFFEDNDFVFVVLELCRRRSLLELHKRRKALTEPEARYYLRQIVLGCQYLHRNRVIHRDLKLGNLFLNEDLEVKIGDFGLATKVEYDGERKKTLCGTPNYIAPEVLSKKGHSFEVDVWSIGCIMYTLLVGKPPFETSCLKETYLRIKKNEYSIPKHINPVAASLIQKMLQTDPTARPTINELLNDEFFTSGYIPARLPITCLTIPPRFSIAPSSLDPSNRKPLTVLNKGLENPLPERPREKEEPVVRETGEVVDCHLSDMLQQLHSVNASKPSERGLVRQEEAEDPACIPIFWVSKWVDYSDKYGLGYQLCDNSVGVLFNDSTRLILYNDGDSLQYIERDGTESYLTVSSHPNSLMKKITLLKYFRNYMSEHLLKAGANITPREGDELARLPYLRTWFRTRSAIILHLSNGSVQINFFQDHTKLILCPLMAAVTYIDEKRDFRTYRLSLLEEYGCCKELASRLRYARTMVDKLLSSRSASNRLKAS
Text: Human Plk1 cDNA may be directly linked at one of its termini with a polynucleotide sequence expressing a His6 tag, such as the C-terminal FLAG-His6 tag, and inserted into an appropriate expression vector, such as a pFastBac™ vector (Invitrogen) and transfected into an appropriate system, such as baculovirus similar to what has been reported by Yue-Wei Qian, et al., Science, 282, 1701 (1998) for xPlk1. If a viral expression system is used, then the virus (e.g., baculovirus bearing a Plk1-Flag-His6 tag polynucleotide construct) is infected into a culture of a suitable host cell, such as Sf9 cells. […]
Plk1 kinase reactions contain Plk1-Flag-His6 tag fusion enzyme (0.2 ng/μL) in a buffer containing 50 mM HEPES, pH 7.3, 1.0 mM dithiothreitol, 5.0 μM ATP, 10 mM MgCl2, 0.01% TRITON® X-100, 0.4 μCi ^33P-ATP, and 0.06 μg/μL GST-Cdc25c (1-206) peptide. […] Wells are dried before addition of 40 μL of MicroScintTM20 (Packard) and then counted on a Wallac MICROBETA® Jet. The percentage inhibition values from the 10-point concentration response data are subsequently analyzed, for example, using ACTIVITY BASE™ software (IDBS), using a 4-parameter logistic equation. Absolute IC50 values are calculated from the resulting curve fit.

[2] = system: HCT116, A549 and NCIH460 murine xenografts; settings: cited from earlier work
[3] = in man, cited from earlier work

Q: For `CC(N)c1cnc(F)cc1-c1cccc2cc(-c3nc(NCCn4ccnn4)ncc3F)sc12` (racemic) [Example 41, N-(2-(1H-1,2,3-Triazol-1-yl)ethyl)-4-(7-(5-(1-aminoethyl)-2-fluoropyridin-4-yl)benzo[b]thiophen-2-yl)-5-fluoropyrimidin-2-amine], which EC50 (HeLa Cells; MSR 2.4, racemate, read-out: DNA content EC50) is on record?
A: 30 nM

Q: What about the EC50 (HeLa Cells; MSR 2.5, racemate, read-out: mitotic EC50) of the same molecule?
A: 23 nM

Q: What about the EC50 (HeLa Cells; MSR 2.6, racemate, read-out: pHH3(s10) EC50) of the same molecule?
A: 25 nM

Q: What about the IC50 (HCT116 cells) of the same molecule?
A: 31 nM

Q: And the IC50 [1]?
A: 12 nM

Q: With `CC[C@@H]1C(=O)N(C)c2cnc(Nc3ccc(C(=O)NC4CCN(C)CC4)cc3OC)nc2N1C1CCCC1` [BI-2536] as the molecule, how does the “activity in preclinical xenograft models” value [2] read?
A: demonstrated activity

Q: What about the dose-limiting toxicity ([3]; phase II clinical trials) of the same molecule?
A: dose limited by myelosupression

Q: What about the “clearance (CL)” value [3] of the same molecule?
A: > 1000 mL/min
